In US20240099989A1, “AGENT FOR PREVENTING OR IMPROVING PERIPHERAL NEUROPATHY” (KINKI UNIVERSITY, priority 2021, published 2024):
“Also recorded” adds a separate entry of the source. Read-outs that look alike come from different tables or passages of the source.

What was measured:
[1] = tested on: Peripheral Neuropathy in a Mouse Caused by Oxaliplatin; test: Cold plate test (10° C.), peripheral neuropathy caused by oxaliplatin; format: in vivo, Balb/c mice
Protocol: The preventive action of xylitol on hyperesthesia that occurs when an anticancer drug, oxaliplatin, was administered was examined. […] Xylitol was orally administered to a mouse simultaneously with the administration of oxaliplatin, and the following tests (cold plate test and von Frey test) were performed. Oxaliplatin is an anticancer drug classified as a platinum-containing drug. In all of the examples described below, a dosage (administered amount) (mg/kg) refers to the weight of the administered substance per kg body weight of the mouse.
Six to seven-week-old female Balb/c mice were used for the tests. All the mice were acclimated for seven days after arrival. Then, the mice were grouped into the following four groups: a control group, a group receiving oxaliplatin, and two groups receiving oxaliplatin and two different doses of xylitol (groups receiving oxaliplatin+xylitol). Each group consisted of nine mice.
On Day 8 of acclimation, the mice in the group receiving oxaliplatin and the groups receiving oxaliplatin+xylitol were intraperitoneally administered with oxaliplatin at a dose of 6 mg/kg. This day was designated as Day 0 of administration. Thereafter, these mice were intraperitoneally administered with oxaliplatin at a daily dose of 6 mg/kg on Day 7 and Day 14.
The mice in a first group receiving oxaliplatin and xylitol were orally administered with xylitol at a dose of 1 mg/kg daily from Day 0. The mice in a second group receiving oxaliplatin and xylitol were orally administered with xylitol at a dose of 5 mg/kg daily from Day 0.
A cold plate test was performed to examine the effect of xylitol on paresthesia that is caused by a low temperature stimulus. The mice in the four groups described in (1) of the present example (Example 1) were placed on a cold plate set at 10° C., and withdrawal response time (latent time) was measured. It is presumed that a shorter latent time reflects a greater degree of shunning the low temperature stimulus by the cold plate.
Six to seven-week-old female Balb/c mice were used for the tests as with Example 1. All the mice were acclimated for seven days after arrival. Then, the mice were grouped into the following five groups: a control group, a group receiving only oxaliplatin, and three groups receiving oxaliplatin and three different doses of xylitol. Each group consisted of seven mice.
On Day 8 of acclimation, the mice in the groups other than the control group were intraperitoneally administered with oxaliplatin at a dose of 6 mg/kg. This day was designated as the first day of the administration (Day 0). Thereafter, these mice were intraperitoneally administered with oxaliplatin at the same dose on Day 7 and Day 14 for a total of 3 doses.
The mice in a first group receiving oxaliplatin+xylitol were orally administered with xylitol at a dose of 5 mg/kg daily from Day 6 of administration. The mice in a second group receiving oxaliplatin+xylitol were orally administered with xylitol at a dose of 25 mg/kg daily from Day 6 of administration. The mice in a third group receiving oxaliplatin+xylitol were orally administered with xylitol at a dose of 100 mg/kg daily from Day 6 of administration. In this context, “Day 6 of administration” means that the number of days after administration is 6. The same applies hereinafter.
A test was performed on the mice in the five groups described in (1) of the present example (Example 2) to examine the effect of xylitol on paresthesia that is caused by a low temperature stimulus. The mice in respective groups were placed on a cold plate set at 10° C., and withdrawal response time (latent time) was measured. It is presumed that a shorter latent time reflects a greater degree of shunning the low temperature stimulus by the cold plate.
Six to seven-week-old female Balb/c mice were used for the tests as with Example 1. All the mice were acclimated for seven days after arrival. […]

[2] = tested on: Peripheral Neuropathy in a Mouse Caused by Bortezomib; format: in vivo, Balb/c mice
Source text: Six to seven-week-old female Balb/c mice were used for the tests. All the mice were acclimated for seven days after arrival. Then, the mice were grouped into the following four groups: a control group, a group receiving bortezomib, a group receiving xylitol, and a group receiving bortezomib and xylitol (a group receiving bortezomib+xylitol). Each group consisted of five mice.
On Day 8 of acclimation, the mice in the group receiving bortezomib and the group receiving bortezomib+xylitol were intraperitoneally administered with bortezomib at a dose of 1 mg/kg. This day was designated as Day 0 of administration. Thereafter, these mice were intraperitoneally administered with bortezomib at a daily dose of 1 mg/kg on Day 7 and Day 14.
The mice in the group receiving xylitol and the group receiving bortezomib+xylitol were orally administered with xylitol at a dose of 5 mg/kg daily from Day 0.
A cold plate test was performed to examine the effect of xylitol on paresthesia that is caused by a low temperature stimulus. The mice in the four groups described in (10) of the present example (Example 1) were placed on a cold plate set at 10° C., and withdrawal response time (latent time) was measured. It is presumed that a shorter latent time reflects a greater degree of shunning the low temperature stimulus by the cold plate.
Six to seven-week-old female Balb/c mice were used for the tests as with Example 1. All the mice were acclimated for seven days after arrival. Then, the mice were grouped into the following four groups: a control group, a group receiving bortezomib, a group receiving xylitol, and a group receiving bortezomib and xylitol (a group receiving bortezomib+xylitol). Each group consisted of five mice.
On Day 8 of acclimation, the mice in the group receiving bortezomib and the group receiving bortezomib+xylitol were intraperitoneally administered with bortezomib at a dose of 1 mg/kg. This day was designated as the first day of the administration (Day 0). Thereafter, these mice were intraperitoneally administered with bortezomib at the same dose on Day 7 and Day 14 for a total of 3 doses.
The mice in the group receiving 100 mg/kg xylitol were orally administered with xylitol at a dose of 100 mg/kg daily from Day 0. The mice in the group receiving bortezomib+100 mg/kg xylitol were orally administered with xylitol at a dose of 100 mg/kg daily from Day 6 of administration.
A test was performed on the mice in the four groups described in (12) of the present example (Example 2) to examine the effect of xylitol on paresthesia that is caused by a low temperature stimulus. The mice in respective groups were placed on a cold plate set at 10° C., and withdrawal response time (latent time) was measured. It is presumed that a shorter latent time reflects a greater degree of shunning the low temperature stimulus by the cold plate.
Six to seven-week-old female Balb/c mice were used for the tests as with Example 1. All the mice were acclimated for seven days after arrival. Then, the mice were grouped into the following four groups: a control group, a group receiving bortezomib, a group receiving D-threitol, and a group receiving bortezomib and D-threitol (a group receiving bortezomib+D-threitol). Each group consisted of five mice.
On Day 8 of acclimation, the mice in the group receiving bortezomib and the group receiving bortezomib+D-threitol were intraperitoneally administered with bortezomib at a dose of 1 mg/kg. This day was designated as Day 0 of administration. Thereafter, these mice were intraperitoneally administered with bortezomib at a daily dose of 1 mg/kg on Day 7 and Day 14.
The mice in the group receiving D-threitol and the group receiving bortezomib+D-threitol were orally administered with D-threitol at a dose of 5 mg/kg daily from Day 0.
A cold plate test was performed to examine the effect of D-threitol on paresthesia that is caused by a low temperature stimulus. […]

[3] = 6 mg/kg oxaliplatin + 5 mg/kg test substance orally daily from Day 0 (prevention)
[4] = 6 mg/kg oxaliplatin + 100 mg/kg test substance orally daily from Day 6 (therapy), time course after Day 6
[5] = 1 mg/kg bortezomib + 5 mg/kg test substance orally daily from Day 0 (prevention)
[6] = 1 mg/kg bortezomib + 100 mg/kg orally daily from Day 6, on Day 12, vs group receiving 1 mg/kg bortezomib

SMILES	withdrawal response time (latent time) [1, 3]	withdrawal response time (latent time) [1, 4]	withdrawal response time (latent time) [2, 5]	withdrawal response time (latent time) [2, 6]	withdrawal response time (latent time) ([1]; 6 mg/kg oxaliplatin + 1 mg/kg test substance orally daily from Day 0 (prevention))	withdrawal response time (latent time) ([1]; 6 mg/kg oxaliplatin + 5 mg/kg orally daily from Day 6, on Day 10, vs group receiving 6 mg/kg oxaliplatin)	withdrawal response time (latent time) ([1]; 6 mg/kg oxaliplatin + 5 mg/kg orally daily from Day 6, on Day 14 and Day 17, vs group receiving 6 mg/kg oxaliplatin)	withdrawal response time (latent time) ([1]; 6 mg/kg oxaliplatin + 5 mg/kg orally daily from Day 6, on Day 21, vs group receiving 6 mg/kg oxaliplatin)	withdrawal response time (latent time) ([1]; 6 mg/kg oxaliplatin + 5 mg/kg test substance orally daily from Day 6 (therapy), time course after Day 6)	withdrawal response time (latent time) ([1]; 6 mg/kg oxaliplatin + 25 mg/kg orally daily from Day 6, on Day 10, vs group receiving 6 mg/kg oxaliplatin)	withdrawal response time (latent time) ([1]; 6 mg/kg oxaliplatin + 25 mg/kg test substance orally daily from Day 6 (therapy), time course after Day 6)	withdrawal response time (latent time) ([1]; 6 mg/kg oxaliplatin + 100 mg/kg orally daily from Day 6, on Day 10, vs group receiving 6 mg/kg oxaliplatin)
OC[C@@H](O)[C@H](O)CO [D-threitol]	approximately similar to that of the control group	tended to become longer from Day 6 onwards; also recorded: significantly longer withdrawal response time	approximately similar to that of the control group	significantly longer withdrawal response time								
OC[C@@H](O)[C@H](O)[C@@H](O)CO [xylitol]	approximately similar to that of the control group		approximately similar to that of the control group	significantly longer withdrawal response time	approximately similar to that of the control group	significantly longer withdrawal response time	no significant difference	significantly longer withdrawal response time	tended to become longer from Day 6 onwards; also recorded: significantly longer withdrawal response time	significantly longer withdrawal response time	tended to become longer from Day 6 onwards; also recorded: increase in the withdrawal response time; also recorded: significantly longer withdrawal response time	significantly longer withdrawal response time
OC[C@H](O)[C@H](O)[C@H](O)[C@@H](O)CO [L-talitol]	almost the same data; also recorded: approximately similar to that of the control group	tended to become longer from Day 9 onwards; also recorded: significantly longer withdrawal response time	approximately similar to that of the control group	significantly longer withdrawal response time								
